Values quoted from earlier work in patent US20100029551A1, “Treatment Of Inflammatory Lung Conditions With Aerosolized Macrolide Antibiotics” (priority 2008, published 2010).

In the case of `CO[C@]1(C)C[C@@H](C)C(=O)[C@H](C)[C@@H](O)[C@](C)(O)[C@@H](C(C)O)OC(=O)[C@H](C)[C@@H](O[C@H]2C[C@@](C)(OC)[C@@H](O)[C@H](C)O2)[C@H](C)[C@H]1O[C@@H]1O[C@H](C)C[C@H](N(C)C)[C@H]1O` (some centres unmarked) [14-hydroxy clarithromycin], the “Activity relative to clarithromycin” value (first-pass metabolite of clarithromycin) is listed as “approximately twice as active as clarithromycin” and the “Plasma half-life relative to clarithromycin” value (plasma) is listed as “significantly longer plasma half-life than clarithromycin”.
